Like-named read-outs stand apart in the source and are kept apart here.
Columns and labels:
[1] = molecular target: rhodamine-conjugated streptavidin (Streptomyces avidinii, UniProt P22629); settings: streptavidin 10^−3 mg/ml
Experimental: (§1) Each concentration is spotted 6 times per slide.
The slides are then incubated in the presence of 150 μl of a 10^−3 mg/ml solution of rhodamine-conjugated streptavidin (solution of streptavidin Tetramethyl Rhodamine conjugate (Molecular Probes, Oregon, USA)) diluted in an 0.01 M PBS buffer, pH 7.2 in 15 the presence of different concentrations of biotin (10^−3 M, 10^−4 M, 10^−5 M, 10^−7 M and 0 M under a glass cover slip (24×60 mm). The slides are incubated for 2 hours at 37° C. under a moist atmosphere. A series of 4 successive washings is carried out with PBS solution to which 0.05% Tween 20 had been added. The slides are then rinsed, dried and analysed as stated above.

[2] = molecular target: Streptavidin Tetramethyl Rhodamine conjugate (Streptomyces avidinii, UniProt P22629)
Experimental: as §1
(§2) The slides are incubated for 2 hours at 37° C. under a moist atmosphere. A series of 4 successive washings is carried out with PBS solution to which 0.05% Tween 20 had been added. The slides are then rinsed with a deionised water wash-bottle then with 95° ethanol for 1 minute, then dried for 15 minutes in the ambient atmosphere.
(§3) The results expressed in the following table correspond to the mean fluorescence and to the standard deviation of the 6 spots of each concentration obtained after incubation of the rhodamine-conjugated streptavidin and the rhodamine- conjugated anti-biotin antibody respectively.

[3] = tested on: Rhodamine Conjugated affinity Purified anti-Biotin [goat]
Experimental: as §1, §2, §3

[4] = tested on: antibodies of positive and negative sera (HCV); experiment: Ketone-functionalised (transaminated) peptide on semicarbazide slides tested with sera; type: binding, human; settings: 16 spots, peptide 10^−4 M
Experimental: The slides are then incubated in the presence of 100 μl of serum from patients diluted to 1/50th in the dilution buffer (PBS+2.5% of powdered semi-skimmed milk+0.5% of Tween 20) under a glass cover slip (24×60 mm). […] 4 successive washes are then effected for 3 minutes in PBS solution with 0.05% added Tween 20.
The reaction of the antibodies of patients with the polypeptides attached to the slide is detected by the binding onto these of fluorescent anti-human IgG antibodies. 100 μl of solution of anti-human IgG-A-M antibodies labelled with rhodamine (TRITC) (Jackson ImmunoResearch Laboratories, Baltimore, US) diluted to 1/100th in the dilution buffer (PBS+2.5% of powdered semi-skimmed milk+0.5% of Tween 20) are then deposited onto each slide. Each slide is then covered with a cover slip (24×60 mm) and left to incubate for 1 hours at 37° C. under a moist atmosphere. A series of 4 successive washes in PBS solution with 0.05% of added Tween 20 is carried out.
The fluorescence emitted is then detected using a slide scanner (L35/PMT 50, Affymetrix 418 Chip Scanner, MWG).
The 2 peptides HCVpc21-Met (non-transaminated) and pc21-TA (transaminated) and also the peptide HCVpc21-2 (described in Example 3) were attached to semicarbazide slides at the rate of 16 spots of each peptide per slide.
Each peptide was deposited at the concentration of 10^−4 M.
The slides were incubated in the presence of 4 positive sera and 2 negative sera.

Sequence of rhodamine-conjugated streptavidin (P22629 37-163 limits assumed): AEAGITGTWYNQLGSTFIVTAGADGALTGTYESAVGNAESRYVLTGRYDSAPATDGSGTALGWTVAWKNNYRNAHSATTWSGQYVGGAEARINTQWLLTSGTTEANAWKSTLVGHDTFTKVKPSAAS
Sequence of Streptavidin Tetramethyl Rhodamine conjugate (P22629 37-163 limits assumed): as above

## H-Lys(biotin-G2)AYLAG-NH(CH2)3O(CH2)2O(CH2)2O(CH2)3NHCOCHO [pep-Biotine]
[1]; pep-Biotine 10^−3 mg/ml, biotin in competition 0 M
  mean fluorescence (6 spots): 29836
[1]; pep-Biotine 10^−3 mg/ml, biotin in competition 10^−3 M
  mean fluorescence (6 spots): 376
[1]; pep-Biotine 10^−3 mg/ml, biotin in competition 10^−4 M
  mean fluorescence (6 spots): 2237
[1]; pep-Biotine 10^−3 mg/ml, biotin in competition 10^−6 M
  mean fluorescence (6 spots): 16683
[1]; pep-Biotine 10^−3 mg/ml, biotin in competition 10^−7 M
  mean fluorescence (6 spots): 17132
[1]; pep-Biotine 10^−4 mg/ml, biotin in competition 0 M
  mean fluorescence (6 spots): 24666
[1]; pep-Biotine 10^−4 mg/ml, biotin in competition 10^−3 M
  mean fluorescence (6 spots): 207
[1]; pep-Biotine 10^−4 mg/ml, biotin in competition 10^−4 M
  mean fluorescence (6 spots): 961
[1]; pep-Biotine 10^−4 mg/ml, biotin in competition 10^−6 M
  mean fluorescence (6 spots): 9414
[1]; pep-Biotine 10^−4 mg/ml, biotin in competition 10^−7 M
  mean fluorescence (6 spots): 12178
[1]; pep-Biotine 10^−5 mg/ml, biotin in competition 0 M
  mean fluorescence (6 spots): 20902
[1]; pep-Biotine 10^−5 mg/ml, biotin in competition 10^−3 M
  mean fluorescence (6 spots): 107
[1]; pep-Biotine 10^−5 mg/ml, biotin in competition 10^−4 M
  mean fluorescence (6 spots): 322
[1]; pep-Biotine 10^−5 mg/ml, biotin in competition 10^−6 M
  mean fluorescence (6 spots): 3588
[1]; pep-Biotine 10^−5 mg/ml, biotin in competition 10^−7 M
  mean fluorescence (6 spots): 6129
[1]; pep-Biotine 10^−6 mg/ml, biotin in competition 0 M
  mean fluorescence (6 spots): 10737
[1]; pep-Biotine 10^−6 mg/ml, biotin in competition 10^−3 M
  mean fluorescence (6 spots): 78
[1]; pep-Biotine 10^−6 mg/ml, biotin in competition 10^−4 M
  mean fluorescence (6 spots): 189
[1]; pep-Biotine 10^−6 mg/ml, biotin in competition 10^−6 M
  mean fluorescence (6 spots): 2350
[1]; pep-Biotine 10^−6 mg/ml, biotin in competition 10^−7 M
  mean fluorescence (6 spots): 2611
[2]; pep-Biotine 10^−3 mg/ml, streptavidin 10^−1 mg/ml
  mean fluorescence (6 spots): 34660
[2]; pep-Biotine 10^−3 mg/ml, streptavidin 10^−3 mg/ml
  mean fluorescence (6 spots): 29836
[2]; pep-Biotine 10^−3 mg/ml, streptavidin 10^−4 mg/ml
  mean fluorescence (6 spots): 13816
[2]; pep-Biotine 10^−4 mg/ml, streptavidin 10^−1 mg/ml
  mean fluorescence (6 spots): 31781
[2]; pep-Biotine 10^−4 mg/ml, streptavidin 10^−3 mg/ml
  mean fluorescence (6 spots): 24666
[2]; pep-Biotine 10^−4 mg/ml, streptavidin 10^−4 mg/ml
  mean fluorescence (6 spots): 7931
[2]; pep-Biotine 10^−5 mg/ml, streptavidin 10^−1 mg/ml
  mean fluorescence (6 spots): 26524
[2]; pep-Biotine 10^−5 mg/ml, streptavidin 10^−3 mg/ml
  mean fluorescence (6 spots): 20902
[2]; pep-Biotine 10^−5 mg/ml, streptavidin 10^−4 mg/ml
  mean fluorescence (6 spots): 7673
[2]; pep-Biotine 10^−6 mg/ml, streptavidin 10^−1 mg/ml
  mean fluorescence (6 spots): 18500
[2]; pep-Biotine 10^−6 mg/ml, streptavidin 10^−3 mg/ml
  mean fluorescence (6 spots): 10737
[2]; pep-Biotine 10^−6 mg/ml, streptavidin 10^−4 mg/ml
  mean fluorescence (6 spots): 2124
[3]; pep-Biotine 10^−3 mg/ml, anti-biotin antibody 10^−1 mg/ml
  mean fluorescence (6 spots): 15350
[3]; pep-Biotine 10^−3 mg/ml, anti-biotin antibody 10^−2 mg/ml
  mean fluorescence (6 spots): 13113
[3]; pep-Biotine 10^−3 mg/ml, anti-biotin antibody 10^−3 mg/ml
  mean fluorescence (6 spots): 6828
[3]; pep-Biotine 10^−3 mg/ml, anti-biotin antibody 10^−4 mg/ml
  mean fluorescence (6 spots): 2271
[3]; pep-Biotine 10^−4 mg/ml, anti-biotin antibody 10^−1 mg/ml
  mean fluorescence (6 spots): 14721
[3]; pep-Biotine 10^−4 mg/ml, anti-biotin antibody 10^−2 mg/ml
  mean fluorescence (6 spots): 9121
[3]; pep-Biotine 10^−4 mg/ml, anti-biotin antibody 10^−3 mg/ml
  mean fluorescence (6 spots): 4981
[3]; pep-Biotine 10^−4 mg/ml, anti-biotin antibody 10^−4 mg/ml
  mean fluorescence (6 spots): 1535
[3]; pep-Biotine 10^−5 mg/ml, anti-biotin antibody 10^−1 mg/ml
  mean fluorescence (6 spots): 10932
[3]; pep-Biotine 10^−5 mg/ml, anti-biotin antibody 10^−2 mg/ml
  mean fluorescence (6 spots): 6849
[3]; pep-Biotine 10^−5 mg/ml, anti-biotin antibody 10^−3 mg/ml
  mean fluorescence (6 spots): 3377
[3]; pep-Biotine 10^−5 mg/ml, anti-biotin antibody 10^−4 mg/ml
  mean fluorescence (6 spots): 1249
[3]; pep-Biotine 10^−6 mg/ml, anti-biotin antibody 10^−1 mg/ml
  mean fluorescence (6 spots): 6606
[3]; pep-Biotine 10^−6 mg/ml, anti-biotin antibody 10^−2 mg/ml
  mean fluorescence (6 spots): 2947
[3]; pep-Biotine 10^−6 mg/ml, anti-biotin antibody 10^−3 mg/ml
  mean fluorescence (6 spots): 791
[3]; pep-Biotine 10^−6 mg/ml, anti-biotin antibody 10^−4 mg/ml
  mean fluorescence (6 spots): 385

## H-MTNRRPQDVKFPGGGQIVGGVYLLPRRGPRLG-NH2 [pc21-Met, non-transaminated control peptide]
[4]; Serum 41, ELISA o.d. 1.4
  Mean Fluorescence: 960
[4]; Serum 43, ELISA o.d. 1.7
  Mean Fluorescence: 2810
[4]; Serum 45, ELISA o.d. 0.7
  Mean Fluorescence: 356
[4]; Serum 48, negative
  Mean Fluorescence: 59
[4]; Serum 53, ELISA o.d. 2.7
  Mean Fluorescence: 7741
[4]; Serum 55, negative
  Mean Fluorescence: 55

Reference: patent US20040235049A1, “Device for presentation of polypeptides able to be used as a chip for miniaturised detection of molecules” (priority 2001, published 2004)
